Results reported in article PMC8185805, “An improved method for the incorporation of fluoromethyl ketones into solid phase peptide synthesis techniques” (RSC Advances, 2021).
*: point of attachment. Cbz = O=C(OCc1ccccc1)*; CH2F = FC*

System: 3CL^pro of SARS-CoV-2
Conditions: pH 7.6

Cbz-SAVLD(OMe)-CH2F [compound 15]
3CL^pro protease activity in the presence of PFMK inhibitor (gel-based cleavage of FLAG-His-SAVLQ-nsp9): completely abolished
